melting point [°C]	Compound
98 to 102	C=C(C)c1cccc([C@H]2CN(C)C(=O)[C@@H]2C(=O)Nc2ccc(F)c(F)c2F)c1 [Compound 1087]
132 to 136	C=C(C)c1ccc([C@H]2CN(C)C(=O)[C@@H]2C(=O)Nc2ccc(F)c(F)c2F)cc1 [Compound 1148]

Reference: patent US12077503B2, “Substituted cyclic amides and their use as herbicides” (FMC CORPORATION, priority 2015, dated 2024)
